Measurements: ChEMBL document CHEMBL1136372, “Antibacterial activity of quinolone-macrocycle conjugates” (2003)
Converted amounts (≈) assume the structure as drawn.

Columns and labels:
Staphylococcus aureus = assay: Minimum inhibitory concentration (MIC) against Staphylococcus aureus ATCC 13709; format: functional
Escherichia coli = assay: Minimum inhibitory concentration against Escherichia coli ATCC 25922; format: functional

Compound | MIC (Staphylococcus aureus) | MIC (Escherichia coli)
CCn1cc(C(=O)Nc2ccc3c(c2)C(=O)NCCC(=O)N[C@H](CCN)C(=O)N[C@@H](Cc2ccc(O)cc2)CO3)c(=O)c2ccc(C)nc21 | > 100 µM | 50 µM (≈ 33.5 µg/mL)
CCN1CC(C(=O)Nc2ccc3c(c2)C(=O)NCCC(=O)N[C@@H](CCN)C(=O)N[C@H](Cc2ccc(O)cc2)CO3)C(=O)c2ccc(C)nc21 (some centres not stated) | > 100 µM | 50 µM (≈ 33.6 µg/mL)
CCn1cc(C(=O)Nc2ccc3c(c2)C(=O)NCCC(=O)N[C@H](CCN)C(=O)N[C@H](Cc2ccc(O)cc2)CO3)c(=O)c2ccc(C)nc21 | > 100 µM | 50 µM (≈ 33.5 µg/mL)
NCC[C@@H]1NC(=O)CCNC(=O)c2cc(NC(=O)c3cnc4ccccc4c3)ccc2OC[C@@H](Cc2ccc(O)cc2)NC1=O | > 100 µM | > 100 µM
CCn1cc(C(=O)Nc2ccc3c(c2)C(=O)NCCC(=O)N[C@@H](CCN)C(=O)N[C@@H](Cc2ccccc2)CO3)c(=O)c2ccc(C)nc21 | > 100 µM | 50 µM (≈ 32.7 µg/mL)
CCn1cc(C(=O)Nc2ccc3c(c2)C(=O)NCCC(=O)N[C@H](CCN)C(=O)N[C@H](Cc2ccccc2)CO3)c(=O)c2ccc(C)nc21 | > 100 µM | 50 µM (≈ 32.7 µg/mL)
NCC[C@@H]1NC(=O)CCNC(=O)c2cc(NC(=O)c3cnccn3)ccc2OC[C@@H](Cc2ccc(O)cc2)NC1=O | > 100 µM | > 100 µM
NCC[C@@H]1NC(=O)CCNC(=O)c2cc(NC(=O)Cn3cnc4c(N)ncnc43)ccc2OC[C@@H](Cc2ccc(O)cc2)NC1=O | > 100 µM | > 100 µM
CCn1cc(C(=O)Nc2ccc3c(c2)C(=O)NCCC(=O)N[C@@H](CCN)C(=O)N[C@@H](Cc2ccc(O)cc2)CO3)c(=O)c2ccc(C)nc21 | > 100 µM | 50 µM (≈ 33.5 µg/mL)
NCC[C@@H]1NC(=O)CCNC(=O)c2cc(NC(=O)Cn3cnc4c(O)nc(N)nc43)ccc2OC[C@@H](Cc2ccc(O)cc2)NC1=O | > 100 µM | > 100 µM
CCn1cc(C(=O)Nc2ccc3c(c2)C(=O)NCCC(=O)N[C@H](CCN)C(=O)N[C@@H](Cc2ccccc2)CO3)c(=O)c2ccc(C)nc21 | > 100 µM | 50 µM (≈ 32.7 µg/mL)
CCN1CC(CNc2ccc3c(c2)C(=O)NCCC(=O)N[C@@H](CCN)C(=O)N[C@H](Cc2ccc(O)cc2)CO3)C(=O)c2ccc(C)nc21 (some centres not stated) | > 100 µM | > 100 µM
NCC[C@@H]1NC(=O)CCNC(=O)c2cc(NC(=O)c3ccc4ccccc4c3)ccc2OC[C@@H](Cc2ccc(O)cc2)NC1=O | > 100 µM | > 100 µM
CCn1cc(C(=O)Nc2ccc3c(c2)C(=O)NCCC(=O)N[C@@H](CCN)C(=O)N[C@H](Cc2ccccc2)CO3)c(=O)c2ccc(C)nc21 | > 100 µM | 50 µM (≈ 32.7 µg/mL)
CCn1cc(C(=O)Nc2ccc3c(c2)C(=O)NCCC(=O)N[C@@H](CCN)C(=O)N[C@H](Cc2ccc(O)cc2)CO3)c(=O)c2ccc(C)nc21 | > 100 µM | 50 µM (≈ 33.5 µg/mL)
CCn1cc(C(=O)O)c(=O)c2ccc(C)nc21 [NALIDIXIC ACID] | 75 µM (≈ 17.4 µg/mL) | 3 µM (≈ 0.697 µg/mL)

These reach a lower MIC (Staphylococcus aureus). Values come first.

MIC (Staphylococcus aureus) | MIC (Escherichia coli) | Compound
50 µM (≈ 43.6 µg/mL) | 6 µM (≈ 5.23 µg/mL) | CC1COc2c(N3CCN(C)CC3)c(F)cc3c2N1CC(C(=O)N(C)CC(=O)Nc1ccc2c(c1)C(=O)NCCC(=O)N[C@@H](CCN)C(=O)N[C@H](Cc1ccc(O)cc1)CO2)C3=O (some centres not stated)
50 µM (≈ 42.9 µg/mL) | 3 µM (≈ 2.57 µg/mL) | CC1COc2c(N3CCN(C)CC3)c(F)cc3c2N1CC(C(=O)NCC(=O)Nc1ccc2c(c1)C(=O)NCCC(=O)N[C@@H](CCN)C(=O)N[C@H](Cc1ccc(O)cc1)CO2)C3=O (some centres not stated)
25 µM (≈ 22.1 µg/mL) | 3 µM (≈ 2.66 µg/mL) | CC1COc2c(N3CCN(C)CC3)c(F)cc3c2N1CC(C(=O)NCCCC(=O)Nc1ccc2c(c1)C(=O)NCCC(=O)N[C@@H](CCN)C(=O)N[C@H](Cc1ccc(O)cc1)CO2)C3=O (some centres not stated)
25 µM (≈ 22.5 µg/mL) | 3 µM (≈ 2.7 µg/mL) | CC1COc2c(N3CCN(C)CC3)c(F)cc3c2N1CC(C(=O)NCCCCC(=O)Nc1ccc2c(c1)C(=O)NCCC(=O)N[C@@H](CCN)C(=O)N[C@H](Cc1ccc(O)cc1)CO2)C3=O (some centres not stated)
25 µM (≈ 22.9 µg/mL) | 3 µM (≈ 2.74 µg/mL) | CC1COc2c(N3CCN(C)CC3)c(F)cc3c2N1CC(C(=O)NCCCCCC(=O)Nc1ccc2c(c1)C(=O)NCCC(=O)N[C@@H](CCN)C(=O)N[C@H](Cc1ccc(O)cc1)CO2)C3=O (some centres not stated)
25 µM (≈ 9.03 µg/mL) | 0.78 µM (≈ 0.282 µg/mL) | CC1COc2c(N3CCN(C)CC3)c(F)cc3c(=O)c(C(=O)O)cn1c23 (configuration not stated) [OFLOXACIN]
13 µM (≈ 10.4 µg/mL) | 3 µM (≈ 2.4 µg/mL) | CC1COc2c(N3CCN(C)CC3)c(F)cc3c2N1CC(C(=O)Nc1ccc2c(c1)C(=O)NCCC(=O)N[C@@H](CCN)C(=O)N[C@H](Cc1ccc(O)cc1)CO2)C3=O (some centres not stated)
13 µM (≈ 11.3 µg/mL) | 3 µM (≈ 2.62 µg/mL) | CC1COc2c(N3CCN(C)CC3)c(F)cc3c2N1CC(C(=O)NCCC(=O)Nc1ccc2c(c1)C(=O)NCCC(=O)N[C@@H](CCN)C(=O)N[C@H](Cc1ccc(O)cc1)CO2)C3=O (some centres not stated)
1.6 µM (≈ 1.26 µg/mL) | 0.2 µM (≈ 0.157 µg/mL) | CN1CCN(c2cc3c(cc2F)C(=O)C(C(=O)Nc2ccc4c(c2)C(=O)NCCC(=O)N[C@@H](CCN)C(=O)N[C@H](Cc2ccc(O)cc2)CO4)CN3C2CC2)CC1 (some centres not stated)
0.6 µM (≈ 0.199 µg/mL) | 0.08 µM (≈ 0.0265 µg/mL) | O=C(O)c1cn(C2CC2)c2cc(N3CCNCC3)c(F)cc2c1=O [CIPROFLOXACIN]
